Data as given in ChEMBL document CHEMBL5728099, “Thienopyridines and benzothiophenes useful as IRAK4 inhibitors” (2020).
pIC50: −log10 of the molar value.

Biological target: T1, Interleukin-1 receptor-associated kinase 4 (Homo sapiens, UniProt Q9NWZ3)
T1 sequence (Q9NWZ3 whole entry): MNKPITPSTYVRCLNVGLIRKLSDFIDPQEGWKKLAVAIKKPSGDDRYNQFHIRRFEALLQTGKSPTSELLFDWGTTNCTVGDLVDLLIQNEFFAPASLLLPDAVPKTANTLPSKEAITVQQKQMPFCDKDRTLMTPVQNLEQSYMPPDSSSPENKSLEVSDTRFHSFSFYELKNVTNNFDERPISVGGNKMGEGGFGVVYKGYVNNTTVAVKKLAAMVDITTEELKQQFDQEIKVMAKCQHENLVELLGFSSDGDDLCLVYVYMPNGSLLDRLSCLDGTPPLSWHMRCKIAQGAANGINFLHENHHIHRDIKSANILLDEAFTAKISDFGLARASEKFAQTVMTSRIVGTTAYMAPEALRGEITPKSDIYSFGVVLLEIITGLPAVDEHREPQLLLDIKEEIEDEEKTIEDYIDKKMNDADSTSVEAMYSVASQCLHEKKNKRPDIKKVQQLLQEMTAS
Experiment: Inhibition Assay: The assays were performed in U-bottom 384-well plates. The final assay volume was 30 μL prepared from 15 μL additions of enzyme and substrates (fluoresceinated peptide and ATP) and test compounds in assay buffer (20 mM HEPES pH 7.2, 10 mM MgCl2, 0.015% Brij 35 and 4 mM DTT). The reaction was initiated by the combination of IRAK4 with substrates and test compounds. The reaction mixture was incubated at room temperature for 60 min. and terminated by adding 45 μL of 35 mM EDTA to each sample. The reaction mixture was analyzed on the Caliper LABCHIP® 3000 (Caliper, Hopkinton, Mass.) by electrophoretic separation of the fluorescent substrate and phosphorylated product. Inhibition data were calculated by comparison to no enzyme control reactions for 100% inhibition and vehicle-only reactions for 0% inhibition. The final concentrations of reagents in the assays are ATP, 500 μM; FL-IPTSPITTTYFFFKKK peptide 1.5 μM; IRAK4, 0.6 nM; and DMSO, 1.6%.

SMILES: CC[C@H]1[C@@H](COc2csc3cc(C(N)=O)c(OC)nc23)NC(=O)C1(C)C
- pIC50: 6.23
